Assay results as given in patent publication US20230210851A1, “SPIRO-LACTAM COMPOUNDS AND METHODS OF TREATING VIRAL INFECTIONS USING THE SAME” (Aptinyx Inc., priority 2020, published 2023).
Like-named read-outs stand apart in the source and are kept apart here.

Molecular target: T1, 3CL Protease, MBP-tagged (SARS-CoV-2) (Severe acute respiratory syndrome coronavirus 2, UniProt P0DTD1)
T1 construct: The assay was performed using 3CL Protease, MBP-tagged (SARS-CoV-2) Assay kit; MBP; purchased BPS Biosciences 79955-2
Assay: biochemical
Conditions: for IC50: compound study, 10 point dose response curve; for activity at tested concentrations: tested concentrations 0.002-30 µM

[1] = COVID-19 3CL Protease inhibitory activity at 30 µM compound
[2] = COVID-19 3CL Protease inhibitory activity at 30 µM compound, 30 µM
[3] = 30 µM concentration, approximate values, read-out: inhibition at 30 µM concentration
[4] = COVID-19 3CL Protease inhibitory activity at 30 µM compound, read-out: % Inhibition at 30 µM
[5] = read-out: % Inhibition at 30 µM, COVID-19 3CL Protease inhibitory activity at 30 µM compound

CC(Cl)C(=O)N1CCN(Cc2ccccc2)C2(CCNC2=O)C1 (stereo not shown) [ET-113, 6-benzyl-9-(2-chloropropanoyl)-2,6,9-triazaspiro[4.5]decan-1-one]
% Inhibition at 30 µM [1]: 0%

CCC(CC)OC(=O)C(C)NP(=O)(OCC(=O)N1CCN(Cc2ccccc2)C2(CCNC2=O)C1)Oc1ccccc1 (stereo not shown) [ET-115, Pentan-3-yl ((2-(6-benzyl-1-oxo-2,6,9-triazaspiro[4.5]decan-9-yl)-2-oxoethoxy)(phenoxy)phosphoryl)alaninate]
% Inhibition at 30 µM [2]: 31%

O=C(CCl)N1CCN(Cc2ccccc2)[C@]2(CCNC2=O)C1 [ET-104, 6-benzyl-9-(2-chloroacetyl)-2,6,9-triazaspiro[4.5]decan-1-one]
inhibition at 30 µM [3]: ~92%
inhibition at 30 µM [4]: 92%
IC50: 11.5 µM

CCC(CC)OC(=O)C(C)NP(=O)(OCC(=O)N1CCN(Cc2ccccc2)C2(CCNC2=O)C1)Oc1ccccc1 (stereo not shown) [ET-116, Pentan-3-yl ((2-(6-benzyl-1-oxo-2,6,9-triazaspiro[4.5]decan-9-yl)-2-oxoethoxy)(phenoxy)phosphoryl)alaninate]
% Inhibition at 30 µM [2]: 28%

O=C(CCl)N1CCN(Cc2ccc(F)cc2)C2(CCNC2=O)C1 (single isomer, unassigned) [ET-108, 9-(2-chloroacetyl)-6-(4-fluorobenzyl)-2,6,9-triazaspiro[4.5]decan-1-one]
inhibition at 30 µM [3]: ~84%
inhibition at 30 µM [4]: 84%
IC50: 6 µM

O=C(CI)N1CCN(Cc2ccccc2)C2(CCNC2=O)C1 (stereo not shown) [ET-109, 6-benzyl-9-(2-iodoacetyl)-2,6,9-triazaspiro[4.5]decan-1-one]
inhibition at 30 µM [5]: 36%

CC(Cl)C(=O)N1CCN(Cc2ccccc2)C2(CCNC2=O)C1 (stereo not shown) [ET-114, 6-benzyl-9-(2-chloropropanoyl)-2,6,9-triazaspiro[4.5]decan-1-one]
% Inhibition at 30 µM [1]: 0%

CC(Cl)C(=O)N1CCN(Cc2ccccc2)C2(CCNC2=O)C1 (stereo not shown) [ET-111, 6-benzyl-9-(2-chloropropanoyl)-2,6,9-triazaspiro[4.5]decan-1-one]
inhibition at 30 µM [5]: 0%

O=C(CI)N1CCN(Cc2ccccc2)C2(CCNC2=O)C1 (stereo not shown) [ET-110, 6-benzyl-9-(2-iodoacetyl)-2,6,9-triazaspiro[4.5]decan-1-one]
inhibition at 30 µM (read-out: inhibition at 30 µM concentration, 30 µM concentration, approximate values): ~47%

CC(Cl)C(=O)N1CCN(Cc2ccccc2)C2(CCNC2=O)C1 (stereo not shown) [ET-112, 6-benzyl-9-(2-chloropropanoyl)-2,6,9-triazaspiro[4.5]decan-1-one]
% Inhibition at 30 µM [1]: 0%

CCC(CC)OC(=O)C(C)NP(=O)(OCC(=O)N1CCN(Cc2ccccc2)C2(CCNC2=O)C1)Oc1ccccc1 (stereo not shown) [ET-117, Pentan-3-yl ((2-(6-benzyl-1-oxo-2,6,9-triazaspiro[4.5]decan-9-yl)-2-oxoethoxy)(phenoxy)phosphoryl)alaninate]
% Inhibition at 30 µM [2]: 15%

CCC(CC)OC(=O)C(C)NP(=O)(OCC(=O)N1CCN(Cc2ccccc2)C2(CCNC2=O)C1)Oc1ccccc1 (stereo not shown) [ET-118, Pentan-3-yl ((2-(6-benzyl-1-oxo-2,6,9-triazaspiro[4.5]decan-9-yl)-2-oxoethoxy)(phenoxy)phosphoryl)alaninate]
% Inhibition at 30 µM [2]: 34%

O=C(CCl)N1CCN(Cc2ccccc2)[C@@]2(CCNC2=O)C1 [ET-103, 6-benzyl-9-(2-chloroacetyl)-2,6,9-triazaspiro[4.5]decan-1-one]
inhibition at 30 µM [3]: ~44%
inhibition at 30 µM [4]: 44%

CC(=O)N1CCN(Cc2ccccc2)[C@]2(CCNC2=O)C1 [ES-319]
inhibition at 30 µM [5]: 0%
activity at tested concentrations: inactive

CC(=O)N1CCN(Cc2ccccc2)[C@@]2(CCNC2=O)C1 [ES-320]
inhibition at 30 µM [5]: 0%
activity at tested concentrations: inactive

O=C(CCl)N1CCN(Cc2ccc(F)cc2)C2(CCNC2=O)C1 (stereo not shown) [ET-107, 9-(2-chloroacetyl)-6-(4-fluorobenzyl)-2,6,9-triazaspiro[4.5]decan-1-one]
inhibition at 30 µM [4]: 38%

CCC(CC)OC(=O)[C@H](C)NP(=O)(OCC(=O)N1CCN(Cc2ccccc2)C2(CCNC2=O)C1)Oc1ccccc1 (stereo partly shown) [ET-119, Pentan-3-yl ((2-(6-benzyl-1-oxo-2,6,9-triazaspiro[4.5]decan-9-yl)-2-oxoethoxy)(phenoxy)phosphoryl)alaninate]
inhibition at 30 µM [5]: 34%

CCC(CC)OC(=O)[C@H](C)NP(=O)(OCC(=O)N1CCN(Cc2ccccc2)C2(CCNC2=O)C1)Oc1ccccc1 (stereo partly shown) [ET-120, Pentan-3-yl ((2-(6-benzyl-1-oxo-2,6,9-triazaspiro[4.5]decan-9-yl)-2-oxoethoxy)(phenoxy)phosphoryl)alaninate]
% Inhibition at 30 µM [2]: 30%
